The results in this text go back to ChEMBL document CHEMBL1240305, “Alkylation of duplex DNA in nucleosome core particles by duocarmycin SA and yatakemycin” (Nat Chem Biol, 2006).

The source made the active and inactive calls. The calls are words filed in the database; no cut-off is given here.

What all share (format): nucleic-acid assay
The test system of assay [1] is Nucleic Acid. Briefly: Induction of thermal cleavage in alpha satellite DNA 5'-CAAAAG-3' in […] at 10 uM at 25 degC after 17 hrs by non-denaturating gel electrophoresis.
Assay [2] concerns Nucleic Acid. Put plainly: Induction of thermal cleavage in alpha satellite DNA 5'-GGAAAC-3' in […] at 10 uM at 25 degC after 17 hrs by non-denaturating gel electrophoresis.
Assay [3] relates to Nucleic Acid. Put plainly: Induction of DNA alkylation-mediated […] at 25 degC after 16 hrs by non-denaturating gel electrophoresis.
Assay [4] relates to Nucleic Acid. Briefly: Induction of thermal cleavage in protein free alpha satellite DNA 5'-GGAAAC-3' at 10 uM at 25 degC after 17 hrs by non-denaturating gel electrophoresis.
Assay [5] relates to Nucleic Acid. Put plainly: Induction of thermal cleavage in protein free alpha satellite DNA 5'-CAAAAG-3' at 10 uM at 25 degC after 1 hr by non-denaturating gel electrophoresis.
Assay [6] has as its system Nucleic Acid. Put plainly: Binding affinity to alpha satellite DNA assessed as neucleosome reconstitution after 17 hrs at 25 degC by non-denaturating gel electrophoresis.
In assay [7] the test system is Nucleic Acid. Put plainly: Induction of thermal cleavage in alpha satellite DNA at 10 uM at 25 degC after 30 mins by non-denaturating gel electrophoresis.
Assay [8] relates to Nucleic Acid. Put plainly: Induction of thermal cleavage in alpha satellite DNA at 10 uM at 25 degC after 1 hr by non-denaturating gel electrophoresis.
The subject of assay [9] is Nucleic Acid. Put plainly: Induction of thermal cleavage in protein free alpha satellite DNA 5'-GAAACT-3' at 10 uM at 25 degC after 17 hrs by non-denaturating gel electrophoresis.
The subject of assay [10] is Nucleic Acid. Briefly: Induction of thermal cleavage in alpha satellite DNA 5'-GAAACT-3' in […] at 10 uM at 25 degC after 17 hrs by non-denaturating gel electrophoresis.

`COc1cc2[nH]c(C(=O)N3C[C@H]4C[C@@]45C3=CC(=O)c3[nH]c(C(=O)N4CCc6c4c(O)c(OC)c4[nH]c(C(=O)SC)cc64)cc35)cc2cc1O`: the outcome with Nucleic Acid [1], in the assay with Nucleic Acid [2], in the assay with Nucleic Acid [3], in the assay with Nucleic Acid [4], with Nucleic Acid [5] and in the assay on Nucleic Acid [6] was Active.
In turn, `COC(=O)c1cc2c([nH]1)C(=O)C=C1N(C(=O)c3cc4cc(OC)c(OC)c(OC)c4[nH]3)C[C@H]3C[C@]123` displayed an Activity with Nucleic Acid [7] of 1 ×10⁻⁵ M. Also, the outcome in the assay on Nucleic Acid [8], with Nucleic Acid [4] and in the assay on Nucleic Acid [6] was Active.
`COc1cc2[nH]c(C(=O)N3C[C@@H]4C[C@]45C3=CC(=O)c3[nH]c(C(=O)N4CCc6c4c(O)c(OC)c4[nH]c(C(=O)SC)cc64)cc35)cc2cc1O`: the outcome in the assay with Nucleic Acid [4], with Nucleic Acid [9], with Nucleic Acid [10] and in the assay with Nucleic Acid [6] was Active.
